{"source": "paper PMC2062954", "about": "“Microencapsulated octreotide pamoate in advanced gastrointestinal and pancreatic cancer: a phase I study” (British Journal of Cancer, 1998)", "test": "Plasma octreotide levels by RIA", "format": "in vivo, human", "procedure": "Norway Summary Fourteen patients suffering from advanced colorectal (n = 7), pancreatic (n = 4) or gastric (n = 3) carcinomas received treatment with microencapsulated octreotide pamoate 90 mg i.m. every 4 weeks (n = 4), 160 mg i.m. every 4 weeks (n = 4) or 160 mg i.m. every 2 weeks (n = 6). […] In this study we evaluate the tolerability. clinical effects, pharmacokinetics and effects on plasma IGF-I and -II of a new microencapsulated formulation of octreotide pamoate in patients suffering from gastrointestinal and pancreatic carci- nomas. […] Thus. apart from deter- mining plasma IGF-I and -HI together with IGFBP-1 and -3 with radioimmunoassay (RIA). we measured IGFBPs using Western ligand blotting and the functional status of IGFBP-3 using immunoblotting. […] PATIENTS AND METHODS Patients Fourteen patients (eight men and six A-omen) with progressive locally advanced and/or metastatic adenocarcinomas of abdominal origin were studied (Table 1). Any other svstemic anti-cancer therapy had been terminated at least 4 weeks before inclusion in the study."}
{"smiles": "C[C@@H](O)[C@@H]1NC(=O)[C@H](CCCCN)NC(=O)[C@@H](Cc2c[nH]c3ccccc23)NC(=O)[C@H](Cc2ccccc2)NC(=O)[C@@H](NC(=O)[C@H](N)Cc2ccccc2)CSSC[C@@H](C(=O)N[C@H](CO)[C@@H](C)O)NC1=O", "note": "[octreotide]", "values": [{"measurement": "ratio of peak octreotide level at first day of injection to plasma level just before the next injection", "setting": "all cohorts, i.m. depot, range, generally two to five times higher, data not shown", "result": "2.2-9.9"}, {"measurement": "lowest plasma level of octreotide observed at any time during treatment", "setting": "individual patients, all cohorts, RIA", "result": 3.4, "unit": "ng/mL"}, {"measurement": "highest plasma octreotide level", "setting": "one patient in cohort 3 (160 mg i.m. every 2 weeks), long-term treatment > 6 months, at day 13, subsequent gradual decline", "result": 98.9, "unit": "ng/mL"}]}
